Reference: PubChem BioAssay (NCI)
Values joined by “and” are separate entries in the source; they are usually repeats but may differ in a detail not shown here. Identical values can stand only once.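 Compound exposure: 48 hours, 5 concentrations, 96-well plates. At the GI50, growth is halved. The concentration for full growth arrest is given as TGI.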

Columns and labels:
Assay in all cases: growth of human tumour cells (NCI), 48 h
RXF 393 renal = system: RXF 393 renal
SK-MEL-5 melanoma = system: SK-MEL-5 melanoma
786-0 renal = system: 786-0 renal
NCI-H522 lung = system: NCI-H522 lung
MALME-3M melanoma = system: MALME-3M melanoma
SF-268 CNS = system: SF-268 CNS
ACHN renal = system: ACHN renal
NCI/ADR-RES ovarian = system: NCI/ADR-RES ovarian
SN12C renal = system: SN12C renal
BT-549 breast = system: BT-549 breast

Structure (SMILES)	TGI (RXF 393 renal) [µM]	TGI (SK-MEL-5 melanoma)	TGI (786-0 renal) [µM]	TGI (NCI-H522 lung) [µM]	TGI (MALME-3M melanoma) [µM]	TGI (SF-268 CNS) [µM]	GI50 (RXF 393 renal) [µM]	GI50 (SK-MEL-5 melanoma) [µM]	GI50 (786-0 renal)	GI50 (NCI-H522 lung) [µM]	GI50 (MALME-3M melanoma) [µM]	GI50 (ACHN renal)	TGI (ACHN renal) [µM]	GI50 (SF-268 CNS)	GI50 (NCI/ADR-RES ovarian)	TGI (NCI/ADR-RES ovarian) [µM]	GI50 (SN12C renal)	TGI (SN12C renal) [µM]	GI50 (BT-549 breast)
C/C(CC(=O)Nc1cccc(Cl)c1C)=N\NC(=O)c1ccncc1	87.9	> 100 µM	> 100	55	> 100	> 100													
COc1cc(C(=O)N2CCN(c3ncccn3)CC2)c(N)cc1OCc1ccccc1	> 100	> 100 µM	> 100	> 100	> 100	> 100	> 100	44.5	> 100 µM	> 100	> 100	> 100 µM	> 100	> 100 µM	> 100 µM	> 100	63.9 µM	> 100	
CC(=O)O[C@H]1CCC2[C@@H]3CCC4Nc5[nH]ncc5C[C@]4(C)C3CC[C@@]21C (stereo partly drawn)	> 100	74.9 µM	> 100	83.2	> 100	> 100							> 100					> 100	
O=S(=O)(c1ccccc1)C1CN2OC1(S(=O)(=O)c1ccccc1)CC2c1ccc(Br)cc1 (stereo not drawn)	46.5	> 100 µM	> 100	> 100	> 100	> 100							> 100					> 100	
COc1ncc(-c2ccc3ncnc(Nc4cccc(Cl)c4)c3c2)cc1NS(=O)(=O)C1CC1	> 100	> 100 µM	> 100			> 100	0.519	> 100	4.82 µM					1.54 µM	1.17 µM	> 100	1.58 µM	> 100	
N#CC(C(=O)C(=O)Nc1ccc(Cl)cc1)c1ccccc1 (stereo not drawn)	> 100	> 100 µM	> 100		> 100	> 100							> 100					> 100	
O=[N+]([O-])c1ccc(N2N=C(c3ccc(NCc4nc5ccccc5[nH]4)cc3)CC2c2ccco2)cc1 (stereo not drawn)	> 100	31.9 µM	> 100	54	66.4	> 100							> 100					61.9	
CC(C)C(=O)NS(=O)(=O)c1ccccc1	> 100		> 100	> 100	> 100	> 100							> 100					> 100	
COC(=O)[C@@H](C)C[C@H](Cc1ccccc1)NC(=O)c1csc([C@@H](C[C@H](C(C)C)N(C)C(=O)[C@@H](NC(=O)[C@H]2CCCCN2C)C2CCCCC2)OC(C)=O)n1		0.0131 µM and 0.0115 µM	2.74			> 25	0.00103		0.00175 µM and 0.0025 µM			0.000746 µM and 0.0025 µM	> 25	0.00375 µM and 0.0025 µM	0.0215 µM and 0.0481 µM	> 25	0.0041 µM and 0.0025 µM	8.9	0.000701 µM and 0.0025 µM
CN[C@@H](C)[C@@H](NC)c1ccccc1	> 100	> 100 µM	> 100	> 100									> 100					> 100	
COC(=O)/C=C/c1c(CC=C(C)C)ncn1C	> 87	> 100 µM	> 100	> 100	> 100	> 100							> 100					> 100	
Cc1cc(NS(=O)(=O)c2ccc(Nc3c4ccccc4nc4c(C(=O)N5CCN(CCO)CC5)ccc(Cl)c34)cc2)no1	> 100	> 100 µM	> 100		> 100	> 100												> 100	
S=c1[nH]c(=S)c2nnn(-c3ccccc3)c2[nH]1	> 100	> 100 µM	> 100	> 100	> 100	> 100							> 100					> 100	
CC(C)N(CCn1c2c3ccccc3ccc2c2oc(=O)c3ccccc3c21)C(C)C	> 100		> 100	> 100	> 100	> 100							> 100					> 100	
CC(C)C(=O)Nc1nc2c(ncn2C2OC(CO)C(O)C2O)c(=O)[nH]1 (stereo not drawn)	> 100	> 100 µM	> 100	> 100	> 100	> 100							> 100					> 100	
CC(=O)[O][Ga]([Br])[O]C(C)=O	> 100	> 100 µM	> 100	> 100	> 100	> 100	> 100	> 100	> 100 µM	> 100	> 100	> 100 µM	> 100	> 100 µM			> 100 µM	> 100	
COC(=O)/C=C1\CCC(C)O1 (stereo not drawn)	> 100	> 100 µM	> 100		> 100	> 100							> 100					> 100	
